{"source": "ChEMBL document CHEMBL1157318", "about": "“Caryophyllene sesquiterpenoids from a fungicolous isolate of Pestalotiopsis disseminata” (2006)", "key": {"[1]": {"tested_on": "Bacillus subtilis", "assay": "Antimicrobial activity against Bacillus subtilis ATCC 6051 at 100 ug/disk by agar disk diffusion method", "type": "functional", "conditions": "for zone of inhibition at 100 µg/disc: read-out: IZ"}, "[2]": {"tested_on": "Aspergillus flavus", "assay": "Antimicrobial activity against sAspergillus flavus NRRL 6541 at 200 ug/disk by agar disk diffusion method", "type": "functional, organism-based"}, "[3]": {"tested_on": "Fusarium verticillioides", "assay": "Antimicrobial activity against Fusarium verticillioides NRRL 25457 at 200 ug/disk by agar disk diffusion method", "type": "functional, organism-based"}, "[4]": {"tested_on": "Staphylococcus aureus", "assay": "Antimicrobial activity against Staphylococcus aureus ATCC 29213 at 100 ug/disk by agar disk diffusion method", "type": "functional", "conditions": "for zone of inhibition at 100 µg/disc: read-out: IZ"}, "[5]": {"tested_on": "Escherichia coli", "assay": "Antimicrobial activity against sEscherichia coli ATCC 25922 at 100 ug/disk by agar disk diffusion method", "type": "functional, organism-based"}, "[6]": {"tested_on": "Candida albicans", "assay": "Antimicrobial activity against Candida albicans ATCC 14053 at 100 ug/disk by agar disk diffusion method", "type": "functional, organism-based"}}, "note": "Activity calls are given as the source filed them. No cut-off for these calls is given here.", "data": [{"smiles": "CC1(C)C[C@H]2[C@@]1(O)[C@@H](O)C[C@]1(C)C=C[C@@H](O)[C@]21CO", "values": [{"measurement": "zone of inhibition at 100 µg/disc", "setting": "[1]", "value": 12, "unit": "mm"}, {"measurement": "Activity", "setting": "[2]", "value": "inactive"}, {"measurement": "Activity", "setting": "[3]", "value": "inactive"}, {"measurement": "zone of inhibition at 100 µg/disc", "setting": "[4]", "value": 8, "unit": "mm"}, {"measurement": "Activity", "setting": "[5]", "value": "inactive"}, {"measurement": "Activity", "setting": "[6]", "value": "inactive"}]}, {"smiles": "CC1(C)C[C@@H]2/C(CO)=C\\C=C/[C@@](C)(O)C[C@H](O)[C@]21O", "note": "[6-HYDROXYPUNCTAPORONIN B]", "values": [{"measurement": "zone of inhibition at 100 µg/disc", "setting": "[1]", "value": 12, "unit": "mm"}, {"measurement": "Activity", "setting": "[2]", "value": "inactive"}, {"measurement": "Activity", "setting": "[3]", "value": "inactive"}, {"measurement": "zone of inhibition at 100 µg/disc", "setting": "[4]", "value": 8, "unit": "mm"}, {"measurement": "Activity", "setting": "[5]", "value": "inactive"}, {"measurement": "Activity", "setting": "[6]", "value": "inactive"}]}, {"smiles": "CC1(C)C[C@H]2[C@@]1(O)[C@@H](O)C[C@]1(C)[C@H](O)C=C[C@]21CO", "values": [{"measurement": "Activity", "setting": "[1]", "value": "inactive"}, {"measurement": "Activity", "setting": "[2]", "value": "inactive"}, {"measurement": "Activity", "setting": "[3]", "value": "inactive"}, {"measurement": "Activity", "setting": "[4]", "value": "inactive"}, {"measurement": "Activity", "setting": "[5]", "value": "inactive"}, {"measurement": "Activity", "setting": "[6]", "value": "inactive"}]}]}
